Structures can show the parent of a compound that is named as a salt.

Assay [1] concerns hind limb vasculature of the anesthetized dog; isolated rabbit ear artery. The assay can be described thus: Reduction in perfusion pressure in hind limb vasculature of the anesthetized dog and in the isolated rabbit ear artery (vasodilator activity). The format is in vivo. From the text:
17, 357 (1972), and also on the basis of percent reduction in perfusion pressure as measured in the isolated rabbit ear artery according to the method described by De La Lande et al. Aust. J. Exp. Biol. Med. Sci. 43, 639 (1965).

A further assay concerns systolic blood pressure. The assay can be described thus: Reduction in systolic blood pressure in the unanesthetized spontaneous hypertensive rat (antihypertensive activity). The settings on record: single oral medication. The format is in vivo. On the procedure:
Antihypertensive activity was determined on the basis of the observed reduction in systolic blood pressure measured according to the method of H. Kersten et al., J. Lab. and Clin. Med. 32, 1090 (1947) following a single oral medication in the unanesthetized spontaneous hypertensive rat described by Okamato et al., Japan Circulation J. 27, 282 (1963).

Assay [2] concerns β-adrenergic. Nature of the assay: Inhibition of isoproterenol-induced heart rate elevation in the pentobarbitalized dog (β-adrenergic blocking activity). It counts as in vivo. The settings on record: test compound 1.0 mg/kg, isoproterenol intravenous.
In another assay the test system is cardiac muscle. The assay can be described thus: Increase in heart rate (β-adrenergic stimulant activity). It counts as in vivo. The settings on record: dog; 100-200 mcg/kg.
Assay [3] relates to respiratory smooth muscle. The assay can be described thus: Inhibition of histamine-induced bronchoconstriction in the dog (β-adrenergic stimulant activity). The format is in vivo. The settings on record: 100-200 mcg/kg, over a period of 2 hours.
The subject of assay [4] is β-adrenergic. The settings on record: Kaiser et al. 1975; cited from earlier work.
Assay [5] relates to β-adrenergic. Conditions: Kaiser et al. 1975; cited from earlier work. The source holds these as a separate data set.

Consider `C[S+]([O-])c1cc(C(O)CNC(C)(C)C)ccc1O` (stereo not drawn) [Example 4, α-[(t-butylamino)methyl]-4-hydroxy-3-(methylsulfinyl)benzenemethanolmethanesulfonate], for which the “vasodilator activity (reduction in perfusion pressure)” value in assay [1] is listed as “vasodilator activity”. Besides, in the assay on systolic blood pressure, the “antihypertensive activity (reduction in systolic blood pressure)” value is on record as “antihypertensive”. In the assay on β-adrenergic [2], the “% Inhibition of Heart Rate Elevation” value was 100%. Moreover, in the assay on cardiac muscle, the “increase in heart rate (β-adrenergic stimulant activity)” value was “increase in heart rate”. Further, the “inhibition of the histamine-induced bronchoconstriction” value in assay [3] amounted to 50%.
As to `CC(C)(C)NCC(O)c1ccc(O)c(S(C)(=O)=O)c1` (stereo not shown) [drawing 3], the β-adrenergic antagonistic activity entry in the assay with β-adrenergic [4] was “exhibits β-adrenergic antagonistic activity”. The β-adrenergic agonist activity entry in the assay with β-adrenergic [5] is recorded as “weakly active”.
Take `CC(C)(C)NCC(O)c1ccc(O)c(S(C)(=O)=O)c1` (stereo not drawn) [Example 6, α-[(t-butylamino)methyl]-4-hydroxy-3-(methylsulfonyl)benzenemethanolmethanesulfonate]: in the assay on β-adrenergic [2], the “% Inhibition of Heart Rate Elevation” value was determined as 87%.
Regarding `CSc1cc(C(O)CNC(C)(C)C)ccc1OC(C)=O` (stereo not drawn) [Example 3, α-[(tert-butylamino)methyl]-4-hydroxy-3-(methylthio)benzenemethanol 4-acetate hydrochloride], the “vasodilator activity (reduction in perfusion pressure)” value in assay [1] is listed as “vasodilator activity”. Further, the “antihypertensive activity (reduction in systolic blood pressure)” value in the assay on systolic blood pressure is on record as “antihypertensive”. Besides, in the assay with β-adrenergic [2], the “% Inhibition of Heart Rate Elevation” value came out at 50%. In addition, the “increase in heart rate (β-adrenergic stimulant activity)” value in the assay with cardiac muscle was “increase in heart rate”. For the same molecule, in assay [3], the “inhibition of the histamine-induced bronchoconstriction” value was 50%.

The record behind these values is patent US4327224A, “α-[(alkylamino)alkyl]-4-hydroxy-3-(alkylthio)benzenemethanols, derivatives thereof and intermediates therefor” (Sterling Drug Inc., priority 1976, dated 1982).
